A word on the IC50: it is the concentration that inhibits the measured activity by half.

Molecules are shown by their SMILES. Bounds are passed on as bounds.

Among the data in patent US20240293558A1, “KRAS INHIBITOR CONJUGATES” (Erasca, Inc., priority 2021, published 2024) are IC50 values, retold here.

In one experiment the target is T1, KRAS (WT) (Homo sapiens, UniProt P01116).
T1 construct: Biotinylated KRAS protein amino acids 1-169 (produced at Erasca); made in house
In words: In-vitro RAS-RAF binding assay (RRB), HTRF/FRET. The format is biochemical. Conditions: Table 2, average of multiple runs of each compound; read-out: Inhibition of RAS-RAF Binding (in-vitro) KRAS (WT) IC50. A digest of the protocol: (§1)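 Compounds preincubated with terbium-labelled biotinylated KRAS (aa 1-169, 30 nM) before 60 min SOS1-catalysed exchange to GTPgS. Binding of the d2-labelled cRAF RBD (30 nM) is read as FRET at equilibrium in duplicate. Buffer: 50 mM HEPES pH 7.5, 100 mM NaCl, 1 mM MgCl2, 1 mM DTT.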

For the next experiment, the target named is KRAS G12D (Homo sapiens, UniProt P01116, G12D). Nature of the experiment: In-vitro RAS-RAF binding assay (RRB), HTRF/FRET. The format is biochemical. On the set-up: Biotinylated KRAS protein amino acids 1-169 (produced at Erasca); made in house. Conditions: Table 2, average of multiple runs of each compound; read-out: Inhibition of RAS-RAF Binding (in-vitro) KRAS (G12D) IC50. A digest of the protocol:
as §1
In general terms: TR-FRET usually uses a lanthanide donor and a delayed reading to cut background.

T1 sequence (P01116 1-169 isoform P01116-2): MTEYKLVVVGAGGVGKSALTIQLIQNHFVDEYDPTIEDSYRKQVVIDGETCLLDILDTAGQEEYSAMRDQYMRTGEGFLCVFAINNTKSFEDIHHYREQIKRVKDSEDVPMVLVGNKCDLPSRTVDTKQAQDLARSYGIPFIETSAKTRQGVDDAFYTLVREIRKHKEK
Chain of KRAS G12D (P01116 1-169 isoform P01116-2 G12D): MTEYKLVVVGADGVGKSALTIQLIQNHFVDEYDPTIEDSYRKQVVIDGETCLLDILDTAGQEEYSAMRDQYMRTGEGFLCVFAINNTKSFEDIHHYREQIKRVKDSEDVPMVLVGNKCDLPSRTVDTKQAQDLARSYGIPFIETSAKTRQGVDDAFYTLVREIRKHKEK

On to `Cc1ncsc1-c1ccc([C@H](C)NC(=O)[C@@H]2C[C@@H](O)CN2C(=O)[C@@H](NC(=O)CCCCN2CCC[C@H]2COc2nc(N3CC4CCC(C3)N4)c3cc(Cl)c(-c4ccc(F)c5sc(N)c(C#N)c45)c(F)c3n2)C(C)(C)C)cc1` [Example 89, (2S,4R)-1-((2S)-2-(5-((2S)-2-(((7-(2-amino-3-cyano-7-fluorobenzo[b]thiophen-4-yl)-4-(3,8-diazabicyclo[3.2.1]octan-3-yl)-6-chloro-8-fluoroquinazolin-2-yl)oxy)methyl)pyrrolidin-1-yl)pentanamido)-3,3-dimethylbutanoyl)-4-hydroxy-N-((S)-1-(4-(4-methylthiazol-5-yl)phenyl)ethyl)pyrrolidine-2-carboxamide], for which the figures for the IC50 at KRAS (WT) and at KRAS G12D were 65.8 nM and 15.2 nM, respectively.

Turning to `C#Cc1c(F)ccc2cc(O)cc(-c3ncc4c(N5CC6CCC(C5)N6)nc(OC[C@@H]5CCCN5CCCOCCC(=O)N[C@H](C(=O)N5C[C@H](O)C[C@H]5C(=O)N[C@@H](C)c5ccc(-c6c(Cl)ccc(Cl)c6Cl)cc5)C(C)(C)C)nc4c3F)c12` [Example 57, (2S,4R)-1-((2S)-2-(3-(3-((2S)-2-(((4-(3,8-diazabicyclo[3.2.1]octan-3-yl)-7-(8-ethynyl-7-fluoro-3-hydroxynaphthalen-1-yl)-8-fluoropyrido[4,3-d]pyrimidin-2-yl)oxy)methyl)pyrrolidin-1-yl)propoxy)propanamido)-3,3-dimethylbutanoyl)-4-hydroxy-N-((S)-1-(2′,3′,6′-trichloro-[1,1′-biphenyl]-4-yl)ethyl)pyrrolidine-2-carboxamide], the IC50 worked out at 118 nM on KRAS (WT) and 13.1 nM at KRAS G12D.

For `C#Cc1c(F)ccc2cc(O)cc(-c3ncc4c(N5CC6CCC(C5)N6)nc(OCCN5CCC(F)(COc6cc([C@H](C(=O)N7C[C@H](O)C[C@H]7C(=O)N[C@@H](C)c7ccc(-c8c(F)cccc8F)cc7)C(C)C)on6)CC5)nc4c3F)c12` [Example 62, (2S,4R)-1-((2R)-2-(3-((1-(2-((4-(3,8-diazabicyclo[3.2.1]octan-3-yl)-7-(8-ethynyl-7-fluoro-3-hydroxynaphthalen-1-yl)-8-fluoropyrido[4,3-d]pyrimidin-2-yl)oxy)ethyl)-4-fluoropiperidin-4-yl)methoxy)isoxazol-5-yl)-3-methylbutanoyl)-N-((S)-1-(2′,6′-difluoro-[1,1′-biphenyl]-4-yl)ethyl)-4-hydroxypyrrolidine-2-carboxamide], the IC50 on KRAS (WT) is above 10000 nM; on KRAS G12D, 13.4 nM.

For the compound `C#Cc1c(F)ccc2cc(O)cc(-c3ncc4c(N5CC6CCC(C5)N6)nc(OC[C@@H]5CCCN5CCCOCCC(=O)N[C@H](C(=O)N5C[C@H](O)C[C@H]5C(=O)N[C@@H](C)c5ccc(-c6cccnc6C(F)(F)F)cc5)C(C)(C)C)nc4c3F)c12` [Example 48, (2S,4R)-1-((2S)-2-(3-(3-((2S)-2-(((4-(3,8-diazabicyclo[3.2.1]octan-3-yl)-7-(8-ethynyl-7-fluoro-3-hydroxynaphthalen-1-yl)-8-fluoropyrido[4,3-d]pyrimidin-2-yl)oxy)methyl)pyrrolidin-1-yl)propoxy)propanamido)-3,3-dimethylbutanoyl)-4-hydroxy-N-((S)-1-(4-(2-(trifluoromethyl)pyridin-3-yl)phenyl)ethyl)pyrrolidine-2-carboxamide], the values for the IC50 at KRAS (WT) and at KRAS G12D were 24.7 nM and 7.53 nM, respectively.

In the case of `C[C@H](NC(=O)[C@@H]1C[C@@H](O)CN1C(=O)[C@@H](NC(=O)CCOCCCN1CCC[C@H]1COc1nc(N2CC3CCC(C2)N3)c2cc(Cl)c(-c3ccc(F)c4sc(N)c(C#N)c34)c(F)c2n1)C(C)(C)C)c1ccc(-c2c(F)cc(F)cc2F)cc1` [Example 37, (2S,4R)-1-((2S)-2-(3-(3-((2S)-2-(((7-(2-amino-3-cyano-7-fluorobenzo[b]thiophen-4-yl)-4-(3,8-diazabicyclo[3.2.1]octan-3-yl)-6-chloro-8-fluoroquinazolin-2-yl)oxy)methyl)pyrrolidin-1-yl)propoxy)propanamido)-3,3-dimethylbutanoyl)-4-hydroxy-N—((S)-1-(2′,4′,6′-trifluoro-[1,1′-biphenyl]-4-yl)ethyl)pyrrolidine-2-carboxamide], the IC50 came out at 275 nM at KRAS (WT) and 19.4 nM on KRAS G12D.

Consider `Cc1ncsc1-c1ccc([C@H](C)NC(=O)[C@@H]2C[C@@H](O)CN2C(=O)[C@@H](NC(=O)CCOCCCN2CCC[C@H]2COc2nc(N3CC4CCC(C3)N4)c3cc(C(F)(F)F)c(-c4ccc(F)c5sc(N)c(C#N)c45)cc3n2)C(C)(C)C)cc1` [Example 80, (2S,4R)-1-((2S)-2-(3-(3-((2S)-2-(((7-(2-amino-3-cyano-7-fluorobenzo[b]thiophen-4-yl)-4-(3,8-diazabicyclo[3.2.1]octan-3-yl)-6-(trifluoromethyl)quinazolin-2-yl)oxy)methyl)pyrrolidin-1-yl)propoxy)propanamido)-3,3-dimethylbutanoyl)-4-hydroxy-N-((S)-1-(4-(4-methylthiazol-5-yl)phenyl)ethyl)pyrrolidine-2-carboxamide], for which the IC50 came out at 63.7 nM on KRAS (WT) and 13.9 nM at KRAS G12D.

Regarding `C#Cc1c(F)ccc2cc(O)cc(-c3ncc4c(N5CC6CCC(C5)N6)nc(OCCN5CCC(C)(COc6cc([C@H](C(=O)N7C[C@H](O)C[C@H]7C(=O)N[C@@H](C)c7ccc(-c8c(F)cc(F)cc8F)cc7)C(C)C)on6)CC5)nc4c3F)c12` [Example 64, (2S,4R)-1-((2R)-2-(3-((1-(2-((4-(3,8-diazabicyclo[3.2.1]octan-3-yl)-7-(8-ethynyl-7-fluoro-3-hydroxynaphthalen-1-yl)-8-fluoropyrido[4,3-d]pyrimidin-2-yl)oxy)ethyl)-4-methylpiperidin-4-yl)methoxy)isoxazol-5-yl)-3-methylbutanoyl)-4-hydroxy-N-((S)-1-(2′,4′,6′-trifluoro-[1,1′-biphenyl]-4-yl)ethyl)pyrrolidine-2-carboxamide], the IC50 at KRAS (WT) stood at 1410 nM; at KRAS G12D it was 9.62 nM.

In the case of `Cc1ccccc1-c1ccc([C@H](C)NC(=O)[C@@H]2C[C@@H](O)CN2C(=O)[C@@H](NC(=O)CCOCCCN2CCC[C@H]2COc2nc(N3CC4CCC(C3)N4)c3cc(Cl)c(-c4ccc(F)c5sc(N)c(C#N)c45)c(F)c3n2)C(C)(C)C)cc1` [Example 26, (2S,4R)-1-((2S)-2-(3-(3-((2S)-2-(((7-(2-amino-3-cyano-7-fluorobenzo[b]thiophen-4-yl)-4-(3,8-diazabicyclo[3.2.1]octan-3-yl)-6-chloro-8-fluoroquinazolin-2-yl)oxy)methyl)pyrrolidin-1-yl)propoxy)propanamido)-3,3-dimethylbutanoyl)-4-hydroxy-N—((S)-1-(2′-methyl-[1,1′-biphenyl]-4-yl)ethyl)pyrrolidine-2-carboxamide], the IC50 on KRAS (WT) worked out at 91.8 nM; on KRAS G12D, 12 nM.

Take `C#Cc1c(F)ccc2cc(O)cc(-c3ncc4c(N5CC6CCC(C5)N6)nc(OC[C@@H]5CCCN5CCCOCCC(=O)N[C@H](C(=O)N5C[C@H](O)C[C@H]5C(=O)N[C@@H](C)c5ccc(-c6cccc(F)c6F)cc5)C(C)(C)C)nc4c3F)c12` [Example 51, (2S,4R)-1-((2S)-2-(3-(3-((2S)-2-(((4-(3,8-diazabicyclo[3.2.1]octan-3-yl)-7-(8-ethynyl-7-fluoro-3-hydroxynaphthalen-1-yl)-8-fluoropyrido[4,3-d]pyrimidin-2-yl)oxy)methyl)pyrrolidin-1-yl)propoxy)propanamido)-3,3-dimethylbutanoyl)-N-((S)-1-(2′,3′-difluoro-[1,1′-biphenyl]-4-yl)ethyl)-4-hydroxypyrrolidine-2-carboxamide]: the values for the IC50 on KRAS (WT) and at KRAS G12D were 95.7 nM and 9.09 nM, respectively.

For `C#Cc1c(F)ccc2cc(O)cc(-c3ncc4c(N5CC6CCC(C5)N6)nc(OC[C@@H]5CCCN5CCCOCCC(=O)N[C@H](C(=O)N5C[C@H](O)C[C@H]5C(=O)N[C@@H](C)c5ccc(-c6c(F)cncc6F)cc5)C(C)(C)C)nc4c3F)c12` [Example 27, (2S,4R)-1-((2S)-2-(3-(3-((2S)-2-(((4-(3,8-diazabicyclo[3.2.1]octan-3-yl)-7-(8-ethynyl-7-fluoro-3-hydroxynaphthalen-1-yl)-8-fluoropyrido[4,3-d]pyrimidin-2-yl)oxy)methyl)pyrrolidin-1-yl)propoxy)propanamido)-3,3-dimethylbutanoyl)-N—((S)-1-(4-(3,5-difluoropyridin-4-yl)phenyl)ethyl)-4-hydroxypyrrolidine-2-carboxamide], the half-inhibitory concentration (IC50) on KRAS (WT) is 37.9 nM; at KRAS G12D it was 10.8 nM.

For the compound `CC(C)[C@@H](C(=O)N1C[C@H](O)C[C@H]1C(=O)N[C@@H](C)c1ccc(-c2c(F)cccc2F)cc1)c1cc(OCC2(C)CCN(CCOc3nc(N4CC5CCC(C4)N5)c4cc(Cl)c(-c5ccc(F)c6sc(N)c(C#N)c56)c(F)c4n3)CC2)no1` [Example 66, (2S,4R)-1-((2R)-2-(3-((1-(2-((7-(2-amino-3-cyano-7-fluorobenzo[b]thiophen-4-yl)-4-(3,8-diazabicyclo[3.2.1]octan-3-yl)-6-chloro-8-fluoroquinazolin-2-yl)oxy)ethyl)-4-methylpiperidin-4-yl)methoxy)isoxazol-5-yl)-3-methylbutanoyl)-N-((S)-1-(2′,6′-difluoro-[1,1′-biphenyl]-4-yl)ethyl)-4-hydroxypyrrolidine-2-carboxamide], the IC50 was at least 10000 nM at KRAS (WT) and 19.8 nM on KRAS G12D.
